Measured values from US9376406B2, “uPAR-uPA interaction inhibitors and methods for treating cancer” (Indiana University Research and Technology Corporation, priority 2011, dated 2016).
“Also recorded” adds a separate entry of the source.

How the values were obtained:
[1] = molecular target: T1, uPAR (Homo sapiens, UniProt Q03405); experiment: Fluorescence polarization assay, displacement of GFD-FAM; format: binding; conditions: displacement of GFD-FAM from uPAR
T1 construct: uPAR comprising amino acids 1-277 was expressed in Drosophila S2 cells; made in house; host or cells: Drosophila S2 cells
T1 sequence (Q03405 23-299): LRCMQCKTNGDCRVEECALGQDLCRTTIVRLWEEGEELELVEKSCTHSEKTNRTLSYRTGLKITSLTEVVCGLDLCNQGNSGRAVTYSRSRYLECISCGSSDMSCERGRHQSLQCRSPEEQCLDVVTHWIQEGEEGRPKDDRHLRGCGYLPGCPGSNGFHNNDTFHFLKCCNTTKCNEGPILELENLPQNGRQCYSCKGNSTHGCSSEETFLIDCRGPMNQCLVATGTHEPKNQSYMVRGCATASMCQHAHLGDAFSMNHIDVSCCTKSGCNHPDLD
Method: Fluorescence Polarization Assay. […] Polarized fluorescence intensities were measured immediately following addition of inhibitors to the protein-peptide mix at room temperature on an EnVision® Multilabel Plate Readers (PerkinElmer) with excitation and emission wavelengths of 485 and 530 nm, respectively.
Fluorescence Polarization Screening to Identify Hit Compounds. To identify compounds that bind to uPAR at the GFD binding site, a fluorescent polarization assay is conceived with a probe that consists of labeling GFD with fluorescein at its N-terminus (GFD-FAM). […] Using this assay, all compounds that emerge from the computational screening are tested initially at a single concentration of 50 μM. The compounds showing the highest reduction in polarization are subjected to activity confirmation.

[2] = molecular target: T1, uPAR; experiment: Fluorescence polarization, direct binding to uPAR
Method: Fluorescence polarization in the presence and absence of protein and were measured using identical conditions as described above.
The mP was evaluated in the a presence and absence of competing 10 μM GFD.

[3] = molecular target: T2, uPAATF binding to uPAR (Homo sapiens, UniProt Q03405); experiment: Microtiter-based uPAATF ELISA; conditions: inhibition of uPAATF binding to uPAR
T2 construct: uPAR comprising amino acids 1-277 was expressed in Drosophila S2 cells; made in house; host or cells: Drosophila S2 cells (uPAR)
T2 sequence (Q03405 23-299): as above
Method: Microtiter-Based ELISA. The competition-binding assays were performed by incubating the proteins with inhibitors prior to binding to the immobilized proteins. Medium to high-binding microplates were coated and incubated for 1 hour at 4° C. with 100 μL of 2 μg/mL of uPAATF in 1×PBS for immobilization. A 1:1 mixture of Superblock® buffer in PBS (Thermoscientific) with 0.04 M NaH2PO4 and 0.3 M NaCl buffer were used for blocking Following the incubation and washing steps, uPA1310 biotinylated antibody (R&D Systems, MN) in 1% BSA 1×PBS buffer (100 μL/well) was added to the wells and incubated for 1-2 hours to allow for the detection of bound uPAR. In the presence of streptavidin-peroxidase and hydrogen peroxide signal was detected on an EnVision® Multilabel Plate Readers (PerkinElmer).

[4] = tested on: H1299 cells; experiment: Immunofluorescence imaging of surface uPA and uPAR; format: cell-based, human; conditions: H1299, 100 μM, 30 min, vs DMSO control
Method: (§1) Immunofluorescence Imaging. An immunofluorescence approach was employed to establish the specificity of the compounds. This consisted of using a fluorescently labeled secondary antibody to probe for the presence of an anti-uPA antibody bound to uPA at the cell surface of MDA-MB-231 and H1299 cancer cells. […] Non-specific bindings were blocked with 5% normal goat serum, 5% BSA, 0.01% Triton X-100 in PBS at RT for 1 h, the cells were then incubated overnight at 4° C. with rabbit polyclonal anti-human uPA or mouse monoclonal anti-human uPAR antibodies (both at a dilution of 1:100 in 1% BSA/PBS). After another washing step with PBS three times, the cells were incubated with anti-rabbit IgG conjugated with Alexa 594 Texas Red (Invitrogen Corporation, Carlsbad, Calif.) or goat anti-mouse IgG conjugated with Alexa Fluor 488 (Invitrogen Corporation, Carlsbad, Calif.), both at a dilution of 1:1000 in 1% BSA/PBS at RT for 1 h in the dark. Images were acquired using a Nikon swept-filed confocal microscope.
(§2) Endogenous uPAR and uPA in the non-small cell lung cancer (NSCLC) cell line H1299 and in a breast cancer cell line MDA-MB-231 were immunostained with selective antibodies and visualized by staining with fluorescently-conjugated secondary antibodies. Cells are stained with (a) a monoclonal antibody against uPAR or (b) a polyclonal antibody against uPA.
(§3) In cells with clear surface staining, the surface of each cell was outlined using uPAR staining and then the pixel immunodensity for uPAR and uPA were determined using Nikon elements software in the outlined regions. Only cells where the cell membrane was clearly discernible were included in the analysis. Each value represents the mean±S.E. from 26-30 cells taken from three different fields from two independent samples. *significant difference from the DMSO control (p<0.001, Student's t test). In the absence of any compound (0.1% DMSO; vehicle control) both uPAR and uPA were detected in large intracellular clusters as well as on surface membranes of MDA-MB-231 cells.

[5] = tested on: MDA-MB-231 cells; experiment: Immunofluorescence imaging of surface uPA and uPAR; format: cell-based, human; conditions: MDA-MB-231, 100 μM, 30 min, vs DMSO control
Method: as §1, §2, §3

[6] = tested on: H1299 cells; experiment: Cytotoxicity (MTT); format: cell-based, human
Method: (§4) Transwell Migration Assay. A 24 well transwell plates (Costar, Corning, N.Y.) were coated with fibronectin. After 4 h of serum starvation, medium containing the same amount of compounds or DMSO were added to the upper chamber and incubated at 37° C. for 8 h. The number of migrated cells was counted in 10 separate 200×fields and averaged over three independent experiments. Cytotoxicity of the compounds on the cells was measured at the same concentrations used in the migration assay during the same incubation time. MTT was added 2 h before measuring.
(§5) A 24 well transwell plates (Costar, Corning, N.Y.) were coated with 30 ng/μl of fibronectin at 4° C. overnight. 500 μl of 10% FBS RPMI-1640 medium containing compounds or 1% DMSO control was added to the lower chamber. After 4 h of serum starvation, 5×10^4 cells in 250 μl of 0.1% FBS medium containing the same amount of compounds or DMSO were added to the upper chamber and incubated at 37° C. for 8 h. Non-invaded cells on the top of the transwell were scrapped-off with a cotton swab, and the cells that had migrated through the filter were fixed in methanol for 30 min, stained with Hematoxylin Stain (Fisher, SH30-500D) for 1 h. The number of migrated cells was counted in 10 separate 200×fields and averaged over three independent experiments. Cytotoxicity of the compounds on the cells was measured at the same concentrations used in the migration assay during the same incubation time, MTT was added 2 h before measuring.
(§6) Ten fields of unit area on each membrane were counted for cell numbers (magnification, 200×). […] The effect of the compound appears to be more pronounced in MDA-MB-231 cells compared with H1299. The level of toxicity of the compounds is measured at each concentration within the timescale of the invasion experiment to ensure that the observed effects are not due to cytotoxicity (FIG. 3(a)).

[7] = tested on: MDA-MB-231 cells; experiment: Cytotoxicity (MTT); format: cell-based, human
Method: as §4, §5, §6

With CC1CC(C)CN(c2cc(Nc3ccccc3C(=O)O)c3c4c(onc24)-c2ccccc2C3=O)C1 (stereo not shown) [IPR-456] the Ki [1] was 4 µM, the Kd ([2]; direct binding to uPAR by fluorescence polarization) was 0.312 µM and the “fluorescence polarization (mP) with increasing uPAR concentration” value ([2]; excitation 530 nm, emission 600 nm) was “showed a dose response with increasing mP”. The “change in polarization with increasing uPAR” value ([2]; in the presence of 10 μM competing GFD) was “no change in the polarization was detected”, the IC50 [3] was about 10 µM and the “immunostaining pattern of uPAR” value [4] was “no change in the immunostaining pattern of uPAR”. The “uPA staining at the cell surface” value [4] was “significant reduction of uPA staining at the cell surface; also recorded: impairs binding of uPA to uPAR at the cell membrane”, the “immunostaining pattern of uPAR” value [5] was “no change in the immunostaining pattern of uPAR” and the “uPA staining at the cell surface” value [5] was “significant reduction of uPA staining at the cell surface; also recorded: impairs binding of uPA to uPAR at the cell membrane”. For the same compound, the cytotoxicity ([6]; H1299, cells harvested from migration assays) was “none was observed”, the cytotoxicity ([6]; H1299, timescale of invasion experiment, concentrations reaching 200 μM) was “did not exhibit undue toxicity” and the cytotoxicity ([7]; MDA-MB-231, cells harvested from migration assays) was “none was observed”. For the same compound, the cytotoxicity ([7]; MDA-MB-231, timescale of invasion experiment, concentrations reaching 200 μM) was “did not exhibit undue toxicity”.
